Data: ChEMBL document CHEMBL1132799, “Hybridization of non-sulfonylurea insulin secretagogue and thiazolidinedione-derived insulin sensitizer” (2000)

How the values were obtained:
3T3-L1 [1] = test: Insulin-sensitizing activity; triglyceride accumulation from insulin regulated differentiation of 3T3-L1 cells at 1 uM expressed as percent activity of pioglitazone; type: functional, Mus musculus
[2] = Insulin-releasing activity in HIT-T15 cells in the presence of 16.7 mM glucose at 10 uM expressed as percent activity of nateglinide; type: functional, Cricetulus griseus
3T3-L1 [3] = test: Compound was tested for insulin-sensitizing activity by measuring triglyceride accumulation from insulin regulated differentiation of 3T3-L1 cells at 10 uM expressed as percent activity of pioglitazone; type: functional, Mus musculus

Structure (SMILES) | Activity (3T3-L1 [1]) [%] | Activity [2] [%] | Activity (3T3-L1 [3]) [%]
Cc1oc(C2CCCCC2)nc1CCOc1ccc(/C=C(\CC(=O)N2C[C@H]3CCCC[C@H]3C2)C(=O)O)cc1 | 83 | 93 | 
O=C(O)/C(=C\c1ccc(OCCCc2ccc(C(F)(F)F)cc2)cc1)CC(=O)N1C[C@H]2CCCC[C@H]2C1 | 4 | 130 | 
CCc1ccc(CCOc2ccc(C[C@@H](CC(=O)N3C[C@H]4CCCC[C@H]4C3)C(=O)O)cc2)nc1 | 4 | 105 | 11
O=C(O)/C(=C/c1ccc(OCCn2ccc3ccccc32)cc1)CC(=O)N1C[C@H]2CCCC[C@H]2C1 | 9 | 105 | 
CCc1ccc(CCOc2ccc(C[C@H](CC(=O)N3C[C@H]4CCCC[C@H]4C3)C(=O)O)cc2)nc1 | 17 | 1 | 55
O=C(O)/C(=C\c1ccc(OCc2ccc(C(F)(F)F)cc2)cc1)CC(=O)N1C[C@H]2CCCC[C@H]2C1 | 15 | 130 | 
CN(CCOc1ccc(/C=C(\CC(=O)N2C[C@H]3CCCC[C@H]3C2)C(=O)O)cc1)c1nc2ccccc2o1 | 121 | 60 | 
CN(CCOc1ccc(/C=C(\CC(=O)N2C[C@H]3CCCC[C@H]3C2)C(=O)O)cc1)c1ccccn1 | 87 | 60 | 
CCc1ccc(CCOc2ccc(/C=C(\CC(=O)N3C[C@H]4CCCC[C@H]4C3)C(=O)O)cc2)nc1 | 20 | 136 | 50
O=C(O)/C(=C\c1ccc(OCCc2ccc(C(F)(F)F)cc2)cc1)CC(=O)N1C[C@H]2CCCC[C@H]2C1 | 5 | 93 | 
CCc1ccc(CCOc2ccc(CC(CC(=O)N3C[C@H]4CCCC[C@H]4C3)C(=O)O)cc2)nc1 (stereo partly specified) | 8 | 68 | 30
Cc1oc(-c2ccncc2)nc1CCOc1ccc(/C=C(\CC(=O)N2C[C@H]3CCCC[C@H]3C2)C(=O)O)cc1 | 93 | 49 | 
Cc1oc(-c2ccccc2)nc1CCOc1ccc(/C=C(\CC(=O)N2C[C@H]3CCCC[C@H]3C2)C(=O)O)cc1 | 103 | 145 | 
CCc1ccc(CCOc2ccc(CC(NC(=O)[C@H]3CC[C@H](C(C)C)CC3)C(=O)O)cc2)nc1 (stereo partly specified) | 2 | 33 | 30
Cc1oc(-c2ccccc2)nc1CCOc1ccc(CC(CC(=O)N2C[C@H]3CCCC[C@H]3C2)C(=O)O)cc1 (stereo partly specified) | 45 | 85 | 
CC(C)[C@H]1CC[C@H](C(=O)N[C@H](Cc2ccccc2)C(=O)O)CC1 [NATEGLINIDE] | 6 | 100 | 40
CCc1ccc(CCOc2ccc(CC3SC(=O)NC3=O)cc2)nc1 (stereo unspecified) [PIOGLITAZONE] | 100 | 10 | 100
